Assay results from PMC7832312, “Enhancing the Physiochemical Properties of Puerarin via L-Proline Co-Crystallization: Synthesis, Characterization, and Dissolution Studies of Two Phases of Pharmaceutical Co-Crystals” (International Journal of Molecular Sciences, 2021).
In brackets after ≈: the same amount, converted by molar mass.

Experiments:
[1] = Dissolution rate measurement (UV, 250 mL medium, 150 RPM, 2 h, 37 °C); type: physicochemical; details: for Time-dependent dissolution rate: 37 °C
Procedure: The solubility and dissolution studies of pure PUE, I, and II were measured using a Thermo Scientific Evolution 300 UV spectrometer in deionized water at pH 7.0, gastrointestinal tract at pH 1.2, and phosphate buffer at pH 6.8 solution at 37 °C. The concentration was calculated utilizing a standard curve, which was made by measuring the absorbance of different concentrations at their λmax. A superfluity sum of the sample was added to 10 mL of H2O medium, pH 1.2 and pH 6.8 phosphate, respectively.
(§1) The oversaturated solution was stirred at 500 RPM by magnetic stirring at 37 °C for 24 h and the suspension was filtered through Whatman’s […] syringe channel, diluted sufficiently and the absorbance was measured at their λmax. For the dissolution rate, the sample was specifically poured into 250 mL pH 7.0 water, pH 1.2 gastrointestinal tract, and pH 6.8 phosphates medium and then stirred at 150 RPM for 2h at 37 °C. Each solution was measured by the absorbance at λmax. At customary interims, the solution was replenished with 3 mL of the respective blank solution to maintain an overall steady volume.

[2] = test system: CT-26 cancer cell lines; experiment: Cytotoxicity evaluation by MTT assay, CT-26; type: cell-based, murine; details: CT-26, culturing 24 h
Procedure: (§2) CT-26 and HEK-293 cell line was purchased from American Type Culture Collection (Manassas, VA, USA). The cell lines were cultured in RPMI 1640 (for CT-26) or DMEM (for HEK-293) containing 10% fetal bovine serum (FBS, Zhejiang Tianhang Biotechnology Co. Ltd., Hangzhou, China) and 1% penicillin/streptomycin (Zhejiang Tianhang Biotechnology Co. Ltd., Hangzhou, China). Cells grew as a monolayer and were detached upon confluence using trypsin (0.5% w/v in PBS, Zhejiang Tianhang Biotechnology Co. Ltd., Hangzhou, China). The cells were harvested from the cell culture medium by incubating in trypsin solution for 3 min. The cells were centrifuged, and the supernatant discarded. A 3 mL portion of serum-supplemented cell culture medium was added to neutralize any residual trypsin. The cells were re-suspended in serum-supplemented RPMI 1640 (for CT-26) or DMEM (for HEK-293) at a concentration of 5 × 10^4 cells per 1 mL. Cells were cultured at 37 °C and 5% CO2 for MTT studies.
(§3) The CT-26 or HEK-293 cells were seeded at a density of 1 × 10^4 cells per well in 100 µL of complete RPMI 1640 (CT-26) or DMEM (for HEK-293), and cultured for 16 h for attachment. The culture medium was then replaced by a serum-free medium containing various concentrations of pristine PUE, I, and II. […] After incubating the cells at 37 °C for 4 h, the MTT solution was removed and DMSO (100 μL) added to dissolve the formazan crystals formed, and the microplates were agitated for 5 min at a medium rate before the spectrophotometric measurement at a wavelength of 570 nm on a microplate reader. […] The relative cell viability (%) related to control cells was calculated by the formula below: V%=[A]experimental−[A]blank/[A]control−[A]blank×100% where V% is the percentage of cell viability, [A]experimental is the absorbance of the wells culturing the treated cells, [A]blank is the absorbance of the blank, and [A]control is the absorbance of the wells culturing untreated cells.

[3] = test system: HEK-293 cell lines; experiment: Cytotoxicity evaluation by MTT assay, HEK-293; type: cell-based, human; details: HEK-293, culturing 24 h
Procedure: as §2, §3

[4] = Solubility measurement (UV, oversaturated solution stirred 24 h at 37 °C); type: physicochemical; details: thermodynamic from solid, average of three replicates
Procedure: The concentration was calculated utilizing a standard curve, which was made by measuring the absorbance of different concentrations at their λmax. A superfluity sum of the sample was added to 10 mL of H2O medium, pH 1.2 and pH 6.8 phosphate, respectively.
as §1

[5] = cited from earlier work

## CCO.O.O.O=C(O)[C@@H]1CCCN1.O=c1c(-c2ccc(O)cc2)coc2c([C@@H]3O[C@H](CO)[C@@H](O)[C@H](O)[C@H]3O)c(O)ccc12.O=c1c(-c2ccc(O)cc2)coc2c([C@@H]3O[C@H](CO)[C@@H](O)[C@H](O)[C@H]3O)c(O)ccc12 [II, [PUE]2[PRO]∙EtOH∙(H2O)2]
[1]; Water, 5 min
  Time-dependent dissolution rate: 0.131 mg/mL
[1]; Water, 10 min
  Time-dependent dissolution rate: 0.210 mg/mL
[1]; Water, 15 min
  Time-dependent dissolution rate: 0.281 mg/mL
[1]; Water, 20 min
  Time-dependent dissolution rate: 0.457 mg/mL
[1]; Water, 25 min
  Time-dependent dissolution rate: 0.567 mg/mL
[1]; Water, 30 min
  Time-dependent dissolution rate: 0.701 mg/mL
[1]; Water, 40 min
  Time-dependent dissolution rate: 1.450 mg/mL
[1]; Water, 50 min
  Time-dependent dissolution rate: 2.110 mg/mL
[1]; Water, 60 min
  Time-dependent dissolution rate: 2.490 mg/mL
[1]; Water, 80 min
  Time-dependent dissolution rate: 2.840 mg/mL
[1]; Water, 100 min
  Time-dependent dissolution rate: 3.203 mg/mL
[1]; Water, 120 min
  Time-dependent dissolution rate: 3.410 mg/mL
[1]; pH 1.2, 5 min
  Time-dependent dissolution rate: 0.171 mg/mL
[1]; pH 1.2, 10 min
  Time-dependent dissolution rate: 0.240 mg/mL
[1]; pH 1.2, 15 min
  Time-dependent dissolution rate: 0.337 mg/mL
[1]; pH 1.2, 20 min
  Time-dependent dissolution rate: 0.417 mg/mL
[1]; pH 1.2, 25 min
  Time-dependent dissolution rate: 0.479 mg/mL
[1]; pH 1.2, 30 min
  Time-dependent dissolution rate: 0.534 mg/mL
[1]; pH 1.2, 40 min
  Time-dependent dissolution rate: 1.005 mg/mL
[1]; pH 1.2, 50 min
  Time-dependent dissolution rate: 1.342 mg/mL
[1]; pH 1.2, 60 min
  Time-dependent dissolution rate: 1.489 mg/mL
[1]; pH 1.2, 80 min
  Time-dependent dissolution rate: 1.683 mg/mL
[1]; pH 1.2, 100 min
  Time-dependent dissolution rate: 1.923 mg/mL
[1]; pH 1.2, 120 min
  Time-dependent dissolution rate: 2.005 mg/mL
[1]; pH 1.2, pH 6.8, H2O pH 7.0
  dissolution rate compared with the other forms: higher dissolution rate than both I and PUE
[1]; pH 6.8, 5 min
  Time-dependent dissolution rate: 0.121 mg/mL
[1]; pH 6.8, 10 min
  Time-dependent dissolution rate: 0.212 mg/mL
[1]; pH 6.8, 15 min
  Time-dependent dissolution rate: 0.352 mg/mL
[1]; pH 6.8, 20 min
  Time-dependent dissolution rate: 0.446 mg/mL
[1]; pH 6.8, 25 min
  Time-dependent dissolution rate: 0.537 mg/mL
[1]; pH 6.8, 30 min
  Time-dependent dissolution rate: 0.861 mg/mL
[1]; pH 6.8, 40 min
  Time-dependent dissolution rate: 1.059 mg/mL
[1]; pH 6.8, 50 min
  Time-dependent dissolution rate: 1.503 mg/mL
[1]; pH 6.8, 60 min
  Time-dependent dissolution rate: 2.210 mg/mL
[1]; pH 6.8, 80 min
  Time-dependent dissolution rate: 2.723 mg/mL
[1]; pH 6.8, 100 min
  Time-dependent dissolution rate: 3.138 mg/mL
[1]; pH 6.8, 120 min
  Time-dependent dissolution rate: 3.370 mg/mL
[2]
  cytotoxicity (MTT cell viability): negligible cytotoxicity
[3]
  cytotoxicity (MTT cell viability): negligible cytotoxicity

## O=c1c(-c2ccc(O)cc2)coc2c([C@@H]3O[C@H](CO)[C@@H](O)[C@H](O)[C@H]3O)c(O)ccc12 [PUE, Puerarin]
[4]; aqueous buffer, phosphate buffer at pH 6.8, 37 °C
  solubility at 24 h: 2490 µg/mL (≈ 5.97 mM)
[4]; deionized water, Distilled Water (pH 7.0), 37 °C
  solubility at 24 h: 2530 µg/mL (≈ 6.07 mM)
[4]; gastrointestinal tract medium pH 1.2, simulated gastric fluid, gastrointestinal tract at pH 1.2, 37 °C
  solubility at 24 h: 1510 µg/mL (≈ 3.63 mM)
[1]; Water, 5 min
  Time-dependent dissolution rate: 0.062 mg/mL
[1]; Water, 10 min
  Time-dependent dissolution rate: 0.109 mg/mL
[1]; Water, 15 min
  Time-dependent dissolution rate: 0.190 mg/mL
[1]; Water, 20 min
  Time-dependent dissolution rate: 0.250 mg/mL
[1]; Water, 25 min
  Time-dependent dissolution rate: 0.294 mg/mL
[1]; Water, 30 min
  Time-dependent dissolution rate: 0.506 mg/mL
[1]; Water, 40 min
  Time-dependent dissolution rate: 0.611 mg/mL
[1]; Water, 50 min
  Time-dependent dissolution rate: 0.692 mg/mL
[1]; Water, 60 min
  Time-dependent dissolution rate: 0.821 mg/mL
[1]; Water, 80 min
  Time-dependent dissolution rate: 0.896 mg/mL
[1]; Water, 100 min
  Time-dependent dissolution rate: 0.935 mg/mL
[1]; Water, 120 min
  Time-dependent dissolution rate: 1.031 mg/mL
[1]; pH 1.2, 5 min
  Time-dependent dissolution rate: 0.008 mg/mL
[1]; pH 1.2, 10 min
  Time-dependent dissolution rate: 0.019 mg/mL
[1]; pH 1.2, 15 min
  Time-dependent dissolution rate: 0.023 mg/mL
[1]; pH 1.2, 20 min
  Time-dependent dissolution rate: 0.030 mg/mL
[1]; pH 1.2, 25 min
  Time-dependent dissolution rate: 0.035 mg/mL
[1]; pH 1.2, 30 min
  Time-dependent dissolution rate: 0.043 mg/mL
[1]; pH 1.2, 40 min
  Time-dependent dissolution rate: 0.163 mg/mL
[1]; pH 1.2, 50 min
  Time-dependent dissolution rate: 0.354 mg/mL
[1]; pH 1.2, 60 min
  Time-dependent dissolution rate: 0.394 mg/mL
[1]; pH 1.2, 80 min
  Time-dependent dissolution rate: 0.435 mg/mL
[1]; pH 1.2, 100 min
  Time-dependent dissolution rate: 0.568 mg/mL
[1]; pH 1.2, 120 min
  Time-dependent dissolution rate: 0.685 mg/mL
[1]; pH 6.8, 5 min
  Time-dependent dissolution rate: 0.078 mg/mL
[1]; pH 6.8, 10 min
  Time-dependent dissolution rate: 0.110 mg/mL
[1]; pH 6.8, 15 min
  Time-dependent dissolution rate: 0.168 mg/mL
[1]; pH 6.8, 20 min
  Time-dependent dissolution rate: 0.244 mg/mL
[1]; pH 6.8, 25 min
  Time-dependent dissolution rate: 0.274 mg/mL
[1]; pH 6.8, 30 min
  Time-dependent dissolution rate: 0.347 mg/mL
[1]; pH 6.8, 40 min
  Time-dependent dissolution rate: 0.415 mg/mL
[1]; pH 6.8, 50 min
  Time-dependent dissolution rate: 0.444 mg/mL
[1]; pH 6.8, 60 min
  Time-dependent dissolution rate: 0.504 mg/mL
[1]; pH 6.8, 80 min
  Time-dependent dissolution rate: 0.560 mg/mL
[1]; pH 6.8, 100 min
  Time-dependent dissolution rate: 0.641 mg/mL
[1]; pH 6.8, 120 min
  Time-dependent dissolution rate: 0.785 mg/mL
[2]
  cytotoxicity (MTT cell viability): negligible cytotoxicity
[3]
  cytotoxicity (MTT cell viability): negligible cytotoxicity
[5]
  elimination half-life: short
  oral bioavailability: about 7%
